The values below are quoted from earlier work in patent US20220273779A1, “TAU PEPTIDE ANTIGENS AND ANTIBODIES BINDING THERETO FOR THE TREATMENT OF TAUOPATHIES” (The Board of Regents of the University of Texas System, priority 2018, published 2022).

Like-named read-outs stand apart in the source and are kept apart here.

The conditions of data set [1]: RRMS, first-line treatments.

Regarding glatiramer acetate, the Reduction of relapses entry in data set [1] is reported as “approximately 30%”. Further, the “Irritation at the injection site” value runs as follows: (intramuscular injections) not above 33%; (subcutaneous injections) “up to 90%”.
